Values of other authors as cited in patent publication US20240033213A1, “TOPICAL PHARMACEUTICAL FORMULATION AND METHOD FOR THE TREATMENT OF SYNDROMES ASSOCIATED WITH CHRONIC PELVIC PAIN” (CURALEAF INTERNATIONAL LIMITED, priority 2020, published 2024).

Molecular target: T1, TRPV1 receptor (Rattus norvegicus, UniProt O35433)
T1 construct: CBD Effects on TRPV1 Signaling Pathways in Cultured DRG Neurons; host or cells: cultured DRG sensory neurons (endogenous TRPV1)
Settings: sensory neurons in an animal model, in vitro

T1 sequence (O35433 whole entry): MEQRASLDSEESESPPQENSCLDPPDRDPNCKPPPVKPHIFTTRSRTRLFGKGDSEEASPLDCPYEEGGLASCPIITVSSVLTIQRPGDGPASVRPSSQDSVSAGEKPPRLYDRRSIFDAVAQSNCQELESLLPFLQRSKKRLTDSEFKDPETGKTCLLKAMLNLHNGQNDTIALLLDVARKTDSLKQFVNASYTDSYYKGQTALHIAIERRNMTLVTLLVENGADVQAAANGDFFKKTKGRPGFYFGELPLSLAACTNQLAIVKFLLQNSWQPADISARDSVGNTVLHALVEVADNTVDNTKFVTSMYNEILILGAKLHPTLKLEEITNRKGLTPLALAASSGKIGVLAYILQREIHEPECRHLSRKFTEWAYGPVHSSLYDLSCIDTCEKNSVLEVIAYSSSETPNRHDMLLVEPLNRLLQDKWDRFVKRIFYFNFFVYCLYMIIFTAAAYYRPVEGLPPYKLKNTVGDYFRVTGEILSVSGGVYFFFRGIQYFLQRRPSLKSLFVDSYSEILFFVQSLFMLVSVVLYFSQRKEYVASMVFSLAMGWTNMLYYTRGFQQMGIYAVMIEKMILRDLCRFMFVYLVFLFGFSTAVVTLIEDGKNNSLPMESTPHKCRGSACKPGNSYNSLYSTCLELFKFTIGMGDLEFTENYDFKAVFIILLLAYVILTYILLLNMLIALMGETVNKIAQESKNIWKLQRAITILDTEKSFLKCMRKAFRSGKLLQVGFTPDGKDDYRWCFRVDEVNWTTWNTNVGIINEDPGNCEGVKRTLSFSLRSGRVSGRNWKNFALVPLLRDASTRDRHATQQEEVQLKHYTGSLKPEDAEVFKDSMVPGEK

SMILES: C=C(C)[C@@H]1CCC(C)=C[C@H]1c1c(O)cc(CCCCC)cc1O [cannabidiol]
- Effect on neuronal hypersensitivity following TRPV1 activation: inhibit neuronal hypersensitivity following TRPV1 activation
